Patent US20220202801A1, “USE OF COMPOUND IN PREPARATION OF DRUG FOR TREATING ATHEROSCLEROSIS” (GenEros Biopharma Ltd., priority 2019, published 2022)

Key:
ICAM-1 = test: Immunohistochemistry of aortic wall, ICAM-1; type: in vivo, mice; settings: for aorta (ICAM-1) signal expression in blood vessels: IHC-P×400, single animal micrograph; for ICAM-1 average optical density: aortic wall
Description: Methods: SPF grade C57BL/6 ApoE −/−model mice were provided by Guangdong Medical Experimental Animal Center, laboratory animal production license No. SOCK (Guangdong) 2013-0002. Laboratory animal quality certificate number: 44007200048196). Mice were half male and half female, aged 8 to 12 weeks, and 72 animals in total. After four weeks of housing in a SPF-level animal facility, animals with less body weights were disposed. A total of 64 animals were randomly divided into 8 groups, 8 in each group, fed with 10% high-fat food, and received with different treatments. Animals were observed and administered with the medicines by gavage once daily. The body weights were measured once a week and continued for 58 days. […] The test sample was dissolved in dimethyl sulfoxide solution and prepared with 30% PEG300.
After blood collection, the animals were sacrificed, and the aortic arch together with the heart and thoracic aorta were fixed with neutral formaldehyde and subject to pathological examination. The abdominal aorta was collected and quick-frozen in liquid nitrogen, and stored at −80° C.
c) Immunohistochemistry: The thoracic aorta was sliced and detected by immunohistochemistry for the expression of CD68, intercellular adhesion molecule-1 (ICAM-1), and vascular cell adhesion Molecule-1 (VCAM-1).

[1] = tested on: atherosclerosis model induced by high-fat diet in ApoE knockout mice; test: Ratio of atherosclerotic plaque area to total inner wall area of the aorta (En-Face, oil red; Example 2); type: in vivo
Description: Methods: A total of 130 SPF grade C57BL/6 ApoE −/− model male mice aged 8 weeks were purchased from Charles River Laboratories (Beijing, China) (animal license number: SCXK (Beijing) 2016-0001, animal qualification certificate No.: 11400700331337). After one week of acclimatization in a SPF-grade animal facility, the animals with less weights were discarded and the rest was randomly divided into 11 groups, with 8 animals in each group. Except for the healthy control group, the rest were fed with 10% high-fat food (the first day of the high-fat diet was recorded as D1). Starting from the 8th week of the high-fat diet, each group of animals was orally given solvents or corresponding drugs, and the volume of administration was 10 ml/kg, once a day for 8 weeks. Animals were observed and administered by gavage once a day and the body weight were measured once a week for 56 days. […] The store solution of the test samples was dissolved in dimethyl sulfoxide solution and prepared with 30% PEG300.
Immediately after blood was taken from the heart, it was perfused through the left ventricle with 20 ml of normal saline. After bloodletting, the heart and aorta (from the aortic arch to the iliac artery) were isolated. The isolated artery was cut longitudinally from the aortic arch to the iliac artery, fixed in 4% paraformaldehyde for 30 minutes, synchronized with 60% isopropanol for 10 minutes, stained in 60% oil red for 30 minutes, and washed by 60% isopropanol 3 times, 5 minutes each time. Finally, the colored aorta was washed with deionized water and photographed. The proportion of the red plaque area was measured by Image Pro Plus 6.0 (Media Cybernetics, MD, US). The heart samples were fixed in 4% paraformaldehyde solution overnight and then placed in sucrose solution for dehydration. Then, it was embedded with OCT (Sakura, Japan) under a stereo microscope and made into 7 μm frozen sections. After HE staining, the slices were used for routine pathological examination. The outflow tract images were collected under an optical microscope at 4* magnification, and 4*, 10*, 20* and 40* magnification eyepieces were used for high-quality morphological observation. The detection standard referred to the histological classification standard of human atherosclerosis disease.
Evaluate the effect of different therapeutic drugs by the ratio of the area of atherosclerotic plaque to the total area of the inner wall of the aortic vessel (En-Face)
We adopted the widely accepted standard for the severity of arteriosclerosis in animal models, and analyzed the area of all plaques on the inner wall of the aorta. […] FIGS. 46A and 46B are histograms of the ratios of plaque area on the inner wall of the aorta in each treatment group. The values in FIGS. 46A and 46B are the ratios of plaques to the total area of the inner wall in each group, and the error is standard error±SEM. The statistical significance analysis is as follows: ***P<0.001 compared with the normal control group; #P<0.05 compared with the vehicle group; ##P<0.01, ###P<0.001, compared with the vehicle group through one-way ANOVA Dunnett's test; & represents P<0.05, compared with the vehicle group by t test.

SMILES: O=c1[nH]c2ccccc2n1C1CCN(CCCC(c2ccc(F)cc2)c2ccc(F)cc2)CC1 [Sample A]
- aorta (ICAM-1) signal expression in blood vessels (ICAM-1; 2 mg/kg): low to medium
- aorta (ICAM-1) signal expression in blood vessels (ICAM-1; 5 mg/kg): low to medium
- aorta (ICAM-1) signal expression in blood vessels (ICAM-1; 10 mg/kg): low to medium
- ICAM-1 average optical density (ICAM-1; 2 mg/kg gavage QD, 2 mg/kg): 2.11 ± 1.53 ×10^−2
- ICAM-1 average optical density (ICAM-1; 2 mg/kg gavage QD, listed as sample A, 2 mg/kg): lower than the model control group
- ICAM-1 average optical density (ICAM-1; 5 mg/kg gavage QD, 5 mg/kg): 2.31 ± 1.16 ×10^−2
- ICAM-1 average optical density (ICAM-1; 5 mg/kg gavage QD, listed as Nib1, 5 mg/kg): reduced expression
- ICAM-1 average optical density (ICAM-1; 5 mg/kg gavage QD, listed as sample A, 5 mg/kg): lower than the model control group
- ICAM-1 average optical density (ICAM-1; 10 mg/kg gavage QD, 10 mg/kg): 1.75 ± 1.46 ×10^−2
- ICAM-1 average optical density (ICAM-1; 10 mg/kg gavage QD, listed as sample A, 10 mg/kg): lower than the model control group

SMILES: O=C(N/N=C/c1coc2ccccc2c1=O)c1cccnc1 [Sample B]
- aorta (ICAM-1) signal expression in blood vessels (ICAM-1; 1 mg/kg): low to medium
- aorta (ICAM-1) signal expression in blood vessels (ICAM-1; 2 mg/kg): low to medium
- aorta (ICAM-1) signal expression in blood vessels (ICAM-1; 5 mg/kg): low to medium
- ICAM-1 average optical density (ICAM-1; 1 mg/kg gavage QD): 2.44 ± 1.19 ×10^−2
- ICAM-1 average optical density (ICAM-1; 2 mg/kg gavage QD, 2 mg/kg): 1.31 ± 1.40 ×10^−2
- ICAM-1 average optical density (ICAM-1; 2 mg/kg gavage QD, listed as Nib2, 2 mg/kg): reduced expression
- ICAM-1 average optical density (ICAM-1; 2 mg/kg gavage QD, listed as sample B, 2 mg/kg): lower than the model control group
- ICAM-1 average optical density (ICAM-1; 5 mg/kg gavage QD): 3.98 ± 1.64 ×10^−2
- Mean of Plaque Ratio (plaque area to total inner wall area of aorta) ([1]; 2 mpk PO QD 8 weeks, high-fat diet): 11.22%
- symptoms of atherosclerosis under therapeutic intervention (mainly plaque area ratio) ([1]; different doses, Example 2): significantly alleviate the symptoms of atherosclerosis
